This is an account of results in the supplement of paper PMC11061612.

Common to all, as to experiment: combination Emax (second highest fraction inhibited in the dose matrix, 72 h); higher = more inhibition; extreme values may be limits of the assay
Experiment [1] has as its system ATN-1 (T-Lymphoblastic Leukemia). Put shortly: (§1)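 Cell lines grown in DMEM/F12 or RPMI with 10% FBS were plated in 1536-well plates and held 24 hours at 37°C, 5% CO2 before 72 hours of exposure to two-drug dose matrices, with DMSO typically at 0.2%. CellTiter-Glo 2.0 luminescence gave viability, which was converted to inhibition. Vehicle wells were set to 0 and blank wells to 1. Combination Emax is the second-highest inhibition in the matrix, and Bliss excess is the observed combination effect minus the expected EA + EB − EA·EB, where EA and EB are the single-agent effects.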

The test system of experiment [2] is GCIY (Gastric Carcinoma). Put shortly:
as §1

In experiment [3] the test system is OCI-M1 (Acute Myeloid Leukemia). The method, boiled down:
as §1

For experiment [4], the system named is JJN-3 (Plasma Cell Myeloma). Put shortly: as §1
The test system of experiment [5] is L-363 (Plasma Cell Myeloma). Put shortly:
as §1

Experiment [6] concerns NCI-H2023 (Non-Small Cell Lung Carcinoma). The method, boiled down:
as §1

Experiment [7] concerns TK (B-Cell Non-Hodgkin's Lymphoma). Put shortly:
as §1

Experiment [8] concerns NCI-H1975 (Lung Adenocarcinoma). Put shortly: as §1
The subject of experiment [9] is IGROV-1 (Ovarian Carcinoma). Put shortly: as §1
For experiment [10], the system named is DK-MG (Glioblastoma). The method, boiled down:
as §1

In experiment [11] the test system is RS4-11 (B-Lymphoblastic Leukemia). The method, boiled down:
as §1

Experiment [12] concerns C2BBe1 (Colorectal Carcinoma). The method, boiled down:
as §1

Experiment [13] deals with JURL-MK1 (Chronic Myelogenous Leukemia). The method, boiled down:
as §1

Experiment [14] relates to MRK-nu-1 (Breast Carcinoma). The method, boiled down:
as §1

In experiment [15] the test system is NTERA-2-cl-D1 (Other Solid Carcinomas). The method, boiled down: as §1
In experiment [16] the test system is NCI-H2009 (Lung Adenocarcinoma). The method, boiled down:
as §1

Experiment [17] concerns NCI-H1048 (Small Cell Lung Carcinoma). Put shortly:
as §1

Experiment [18] has as its system HT-3 (Cervical Carcinoma). The method, boiled down:
as §1

For experiment [19], the system named is MDA-MB-175-VII (Breast Carcinoma). Put shortly: as §1
Experiment [20] has as its system C32 (Melanoma). Put shortly:
as §1

As for `CN(C)CCCOc1ccc(-c2ccc3ncc4c(c3c2)n(C2CCOCC2)c(=O)n4C)cn1` [AZD0156] + C[C@@H]1COCCN1C2=NC(=NC(=C2)C3(CC3)[S@](=N)(=O)C)C4=C5C=CNC5=NC=C4 [AZD6738] (first compound max 1 µM, 7x7, partner max 10 µM), the “combination Emax” value in [1] turned out to be 1; in experiment [2], 0.851; in [3], 0.982; in experiment [4] it was 0.938; in [5] it was 0.92; in experiment [6], 0.836. In addition, the “combination Emax” value in [7] stood at 0.907; in experiment [8] it was 0.407; in experiment [9], 0.724; in [10], 0.242; in experiment [11], 0.943; in experiment [12], 0.434. The “combination Emax” value in experiment [13] was 0.998; in [14], 0.648; in [15], 0.595; in [16] it was 0.459; in experiment [17] it was 0.468; in experiment [18], 0.609. Besides, the “combination Emax” value in [19] was found to be 0.342; in experiment [20] it was 0.666.
`Cn1cnc2c(F)c(Nc3ccc(Br)cc3Cl)c(C(=O)NOCCO)cc21` [Selumetinib] + C[C@@H]1COCCN1C2=NC(=NC(=C2)C3(CC3)[S@](=N)(=O)C)C4=C5C=CNC5=NC=C4 [AZD6738] (first compound max 10 µM, 7x7, partner max 10 µM): the “combination Emax” value in [1] turned out to be 0.97; in experiment [2], 0.704; in experiment [3], 0.984; in experiment [4] it was 0.677; in experiment [5] it was 0.801; in experiment [6], 0.477. Further, the “combination Emax” value in experiment [7] worked out at 0.909; in experiment [8] it was 0.496; in [9], 0.818; in experiment [10], 0.417; in experiment [11], 0.953; in experiment [12], 0.569. Besides, the “combination Emax” value came to 1 in [13]; 0.413 in experiment [14]; 0.351 in [15]; 0.627 in experiment [16]; 0.67 in experiment [17]; 0.54 in [18]. Further, the “combination Emax” value in [19] was 0.432; in [20], 1.
As for `CCc1c2c(nc3ccc(O)cc13)-c1cc3c(c(=O)n1C2)COC(=O)[C@]3(O)CC` [SN-38] + CN(C)CCCOc1ccc(-c2ccc3ncc4c(c3c2)n(C2CCOCC2)c(=O)n4C)cn1 [AZD0156] (first compound max 0.3 µM, 7x7, partner max 1 µM), the “combination Emax” value came to 1 in experiment [1]; 0.8 in experiment [2]; 0.991 in experiment [3]; 0.626 in experiment [4]; 0.559 in experiment [5]; 0.834 in [6]. The “combination Emax” value in [7] amounted to 0.991; in experiment [8], 0.514; in experiment [9], 0.691; in experiment [10], 0.241; in [11], 0.984; in experiment [12] it was 0.149. The “combination Emax” value in experiment [13] came to 1; in experiment [14], 0.803; in experiment [15], 0.958; in experiment [16], 0.562; in experiment [17], 0.968; in experiment [18], 0.95. The entries for the “combination Emax” value in [19] and in experiment [20] were 0.631 and 0.688, respectively.
Consider `COc1cccc(OCCCN)c1-c1cc(Nc2cnc(C#N)cn2)n[nH]1` [Prexasertib] + Cc1cc2ncnn2cc1Nc1ncc2c(n1)n(C1CCOCC1)c(=O)n2C [AZD7648] (first compound max 1 µM, 7x7, partner max 10 µM), for which the “combination Emax” value stood at 1 in experiment [1]; 0.879 in [2]; 0.948 in experiment [3]; 0.966 in [4]; 0.985 in experiment [5]; 0.801 in experiment [6]. For the same compound, the “combination Emax” value amounted to 0.872 in experiment [7]; 0.409 in [8]; 0.76 in experiment [9]; 0.312 in experiment [10]; 1 in experiment [11]; 0.625 in [12]. Further, the “combination Emax” value in experiment [13] came to 1; in experiment [14], 0.803; in experiment [15] it was 0.345; in experiment [16] it was 0.45; in experiment [17], 0.735; in experiment [18], 0.388. For the same compound, the “combination Emax” value was determined as 0.367 in experiment [19] and 0.753 in [20].
In the case of `CCN(CCO)CCCOc1ccc2c(Nc3cc(CC(=O)Nc4cccc(F)c4)[nH]n3)ncnc2c1` [AZD2811] + O=C(c1cc(Cc2n[nH]c(=O)c3ccccc23)ccc1F)N1CCN(C(=O)C2CC2)CC1 [Olaparib] (first compound max 1 µM, 7x7, partner max 10 µM), the “combination Emax” value in [1] is 0.835; in [2], 0.427; in [3], 0.268; in experiment [4], 0.336; in experiment [5] it was 0.184; in experiment [6], 0.415. Besides, the “combination Emax” value in [7] stood at 0.206; in experiment [8], 0.191; in experiment [9], 0.303; in [10], 0.258; in experiment [11], 0.987; in experiment [12], 0.131. The “combination Emax” value came to 0.688 in [13]; 0.491 in [14]; 0.65 in experiment [15]; 0.343 in [16]; 0.698 in experiment [17]; 0.18 in experiment [18]. Besides, the “combination Emax” value in experiment [19] is 0.23; in [20] it was 0.232.
Consider `Cc1c2c(nn1C)CSCc1cc(n(C)n1)CSc1cc(c3ccccc3c1)OCCCc1c(C(=O)O)n(C)c3c-2c(Cl)ccc13` [AZD5991] + Cc1cc2ncnn2cc1Nc1ncc2c(n1)n(C1CCOCC1)c(=O)n2C [AZD7648] (first compound max 1 µM, 7x7, partner max 10 µM), for which the “combination Emax” value in experiment [1] was found to be 0.925; in experiment [2] it was 0.526; in [3], 0.145; in experiment [4], 1; in experiment [5], 1; in [6], 0.441. Besides, the “combination Emax” value is 0.204 in experiment [7]; 0.46 in experiment [8]; 0.625 in experiment [9]; 0.509 in experiment [10]; 0.501 in experiment [11]; 0.356 in experiment [12]. Also, the “combination Emax” value in experiment [13] was found to be 0.773; in [14], 1; in experiment [15], 0.662; in experiment [16] it was 0.147; in experiment [17], 0.988; in experiment [18], 0.353. In addition, the “combination Emax” value amounted to 0.263 in [19] and 0.198 in experiment [20].
